From patent US7981903B2, “2-[2-{phenylamino}-1H-pyrrolo[2,3-D]pyrimidin-4-yl)amino] benzamide derivatives as IGF-1R inhibitors for the treatment of cancer” (GlaxoSmithKline LLC, priority 2007, dated 2011)

Tests used:
ALK = ALK (Homo sapiens, UniProt Q9UM73); assay: ALK enzyme assay (HTRF); assay type: biochemical; conditions: 0.25 nM ALK, 15.0 μM ATP, values given as pIC50 category
Summary of the method: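 Final compound range 0.00017 to 10 μM (twelve 1:3 dilutions). Kinase reaction with ATP and biotinylated synthetic peptide runs 120 min at 20° C, stopped with EDTA; phosphotyrosine detected by HTRF after 60 min. Inhibition referenced to DMSO (1%) and EDTA (0.1 M) controls, curve-fitted.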

human IR (hIR) = biological target: T1, human IR (hIR) (Homo sapiens, UniProt P06213); assay: TR-FRET kinase assay of purified hIR; assay type: biochemical; conditions: activated hIR 0.5 nM, 10 μM ATP, values given as pIC50 category
T1 construct: containing amino acid residues 979-1382 of human IR; made in house; host or cells: Sf9 cells (baculovirus), same process as hIGF1R
T1 sequence (P06213 979-1382): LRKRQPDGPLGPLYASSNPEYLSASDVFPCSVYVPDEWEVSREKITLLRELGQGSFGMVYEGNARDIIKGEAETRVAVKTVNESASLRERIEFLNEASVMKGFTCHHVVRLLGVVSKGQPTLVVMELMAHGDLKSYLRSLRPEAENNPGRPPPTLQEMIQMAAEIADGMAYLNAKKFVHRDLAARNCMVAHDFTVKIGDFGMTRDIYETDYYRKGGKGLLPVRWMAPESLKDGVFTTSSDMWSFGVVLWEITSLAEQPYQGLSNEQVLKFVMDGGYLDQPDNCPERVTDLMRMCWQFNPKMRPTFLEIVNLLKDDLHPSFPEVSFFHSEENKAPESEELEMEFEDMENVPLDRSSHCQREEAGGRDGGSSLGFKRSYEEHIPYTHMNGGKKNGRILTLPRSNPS

ALK, sequence (Q9UM73 19-1620): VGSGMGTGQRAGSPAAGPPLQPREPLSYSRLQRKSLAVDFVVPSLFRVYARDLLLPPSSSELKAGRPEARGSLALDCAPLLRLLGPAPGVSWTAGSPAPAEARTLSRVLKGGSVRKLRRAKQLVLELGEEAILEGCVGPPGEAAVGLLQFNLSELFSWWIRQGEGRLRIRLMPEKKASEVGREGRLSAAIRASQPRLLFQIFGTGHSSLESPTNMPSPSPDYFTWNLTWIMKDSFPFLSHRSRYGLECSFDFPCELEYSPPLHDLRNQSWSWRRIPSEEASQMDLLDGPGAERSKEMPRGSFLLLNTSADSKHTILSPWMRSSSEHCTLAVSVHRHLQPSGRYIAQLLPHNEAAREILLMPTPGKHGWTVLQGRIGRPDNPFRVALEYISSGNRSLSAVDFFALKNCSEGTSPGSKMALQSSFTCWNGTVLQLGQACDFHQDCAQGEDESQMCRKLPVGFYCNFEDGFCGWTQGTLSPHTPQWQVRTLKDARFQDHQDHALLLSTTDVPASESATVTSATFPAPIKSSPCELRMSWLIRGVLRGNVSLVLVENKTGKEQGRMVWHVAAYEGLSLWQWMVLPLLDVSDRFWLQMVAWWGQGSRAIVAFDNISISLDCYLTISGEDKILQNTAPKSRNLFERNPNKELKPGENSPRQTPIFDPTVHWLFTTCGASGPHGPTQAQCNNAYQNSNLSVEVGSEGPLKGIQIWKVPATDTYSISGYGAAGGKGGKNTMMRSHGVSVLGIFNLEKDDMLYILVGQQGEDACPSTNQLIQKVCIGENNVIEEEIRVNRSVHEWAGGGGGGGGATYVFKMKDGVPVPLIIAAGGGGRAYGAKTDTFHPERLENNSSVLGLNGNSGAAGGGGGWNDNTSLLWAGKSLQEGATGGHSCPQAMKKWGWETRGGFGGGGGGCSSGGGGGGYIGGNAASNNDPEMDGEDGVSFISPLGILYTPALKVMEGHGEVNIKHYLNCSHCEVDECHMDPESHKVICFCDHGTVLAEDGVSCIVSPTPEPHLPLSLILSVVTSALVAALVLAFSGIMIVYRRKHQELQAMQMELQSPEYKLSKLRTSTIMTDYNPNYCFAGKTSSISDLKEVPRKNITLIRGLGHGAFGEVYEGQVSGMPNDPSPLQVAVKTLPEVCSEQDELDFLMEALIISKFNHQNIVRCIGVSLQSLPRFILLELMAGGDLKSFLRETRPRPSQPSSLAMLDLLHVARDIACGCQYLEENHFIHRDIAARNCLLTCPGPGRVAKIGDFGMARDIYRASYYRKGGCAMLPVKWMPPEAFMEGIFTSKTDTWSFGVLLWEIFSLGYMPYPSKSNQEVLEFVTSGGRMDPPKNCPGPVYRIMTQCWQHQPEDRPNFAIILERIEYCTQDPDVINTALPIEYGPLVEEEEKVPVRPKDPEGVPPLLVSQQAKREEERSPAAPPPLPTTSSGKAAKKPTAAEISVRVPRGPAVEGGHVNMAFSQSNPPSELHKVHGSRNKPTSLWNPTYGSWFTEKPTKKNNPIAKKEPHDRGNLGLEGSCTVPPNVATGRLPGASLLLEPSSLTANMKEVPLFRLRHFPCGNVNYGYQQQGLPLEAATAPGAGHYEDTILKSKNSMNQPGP

SMILES | IC50 (ALK) [nM] | IC50 (human IR (hIR)) [nM]
COc1cc(C2CCN(C(C)C)CC2)ccc1Nc1nc(Nc2cc(F)c(F)cc2C(N)=O)c2cc[nH]c2n1 [Example 97, 4,5-difluoro-2-[(2-{[4-[1-(1-methylethyl)-4-piperidinyl]-2-(methyloxy)phenyl]amino}-1H-pyrrolo[2,3-d]pyrimidin-4-yl)amino]benzamide] | 0.251 to 1 | 0.251 to 1
COc1c(Nc2nc(Nc3cccc(F)c3C(N)=O)c3cc[nH]c3n2)ccc(N2CCN(C(C)C)CC2)c1F [Example 51, 2-fluoro-6-[(2-{[3-fluoro-4-[4-(1-methylethyl)-1-piperazinyl]-2-(methyloxy)phenyl]amino}-1H-pyrrolo[2,3-d]pyrimidin-4-yl)amino]benzamide] | 1.26 to 3.98 | 
COc1cc(N2CCN(C(C)C)CC2)ccc1Nc1nc(Nc2cccc(F)c2C(N)=O)c2cc[nH]c2n1 [Example 46, 2-fluoro-6-[(2-{[4-[4-(1-methylethyl)-1-piperazinyl]-2-(methyloxy)phenyl]amino}-1H-pyrrolo[2,3-d]pyrimidin-4-yl)amino]benzamide] | 0.251 to 1 | 
COc1cc(N2CCN(C(C)C)CC2)c(F)cc1Nc1nc(Nc2cccc(F)c2C(N)=O)c2cc[nH]c2n1 [Example 48, 2-fluoro-6-[(2-{[5-fluoro-4-[4-(1-methylethyl)-1-piperazinyl]-2-(methyloxy)phenyl]amino}-1H-pyrrolo[2,3-d]pyrimidin-4-yl)amino]benzamide] | 0.251 to 1 | 
COc1cc(N2CCN(CCS(C)(=O)=O)CC2)c(C)cc1Nc1nc(Nc2cccc(F)c2C(N)=O)c2cc[nH]c2n1 [Example 52, 2-fluoro-6-({2-[(5-methyl-2-(methyloxy)-4-{4-[2-(methylsulfonyl)ethyl]-1-piperazinyl}phenyl)amino]-1H-pyrrolo[2,3-d]pyrimidin-4-yl}amino)benzamide] | 1.26 to 3.98 | 

The remaining lines, values ahead:

IC50 (ALK) [nM] | IC50 (human IR (hIR)) [nM] | SMILES
5.01 to 200 | 1.26 to 3.98 | COc1cc2c(cc1Nc1nc(Nc3cc(F)cc(F)c3C(=O)NCc3ccc(F)cc3)c3cc[nH]c3n1)N(C(=O)CN(C)C)CC2 [Example 155, 2-[(2-{[1-(N,N-dimethylglycyl)-5-(methyloxy)-2,3-dihydro-1H-indol-6-yl]amino}-1H-pyrrolo[2,3-d]pyrimidin-4-yl)amino]-4,6-difluoro-N-[(4-fluorophenyl)methyl]benzamide]
0.251 to 1 | 1.26 to 3.98 | COc1cc(N2CCCN(C)CC2)ccc1Nc1nc(Nc2cccc(F)c2C(N)=O)c2cc[nH]c2n1 [Example 209, 2-fluoro-6-[(2-{[4-(4-methylhexahydro-1H-1,4-diazepin-1-yl)-2-(methyloxy)phenyl]amino}-1H-pyrrolo[2,3-d]pyrimidin-4-yl)amino]benzamide]
0.251 to 1 | 1.26 to 3.98 | COc1cc2c(cc1Nc1nc(Nc3cc(F)cc(F)c3C(=O)NC(C)C)c3cc[nH]c3n1)N(C(=O)CN(C)C)CC2 [Example 153, 2-[(2-{[1-(N,N-dimethylglycyl)-5-(methyloxy)-2,3-dihydro-1H-indol-6-yl]amino}-1H-pyrrolo[2,3-d]pyrimidin-4-yl)amino]-4,6-difluoro-N-(1-methylethyl)benzamide]
5.01 to 200 | 1.26 to 3.98 | CNC(=O)c1c(F)cccc1Nc1nc(Nc2cc3c(cc2OC)CCCN3C(=O)CN2CCCCC2)nc2[nH]ccc12 [Example 217, 2-fluoro-N-methyl-6-[(2-{[6-(methyloxy)-1-(1-piperidinylacetyl)-1,2,3,4-tetrahydro-7-quinolinyl]amino}-1H-pyrrolo[2,3-d]pyrimidin-4-yl)amino]benzamide]
1.26 to 3.98 | 1.26 to 3.98 | CNC(=O)c1c(F)cccc1Nc1nc(Nc2cc3c(cc2OC)CCCN3C(=O)CN(C)C)nc2[nH]ccc12 [Example 212, 2-[(2-{[1-(N,N-dimethylglycyl)-6-(methyloxy)-1,2,3,4-tetrahydro-7-quinolinyl]amino}-1H-pyrrolo[2,3-d]pyrimidin-4-yl)amino]-6-fluoro-N-methylbenzamide]
